Earlier results, collected in US8673343B2, “Preparation and administration of jojoba product for reducing weight, fat and blood lipid levels and for the prevention and treatment of cancer” (Yiwu Jiangr Bio-Technology HK Corp., priority 2001, dated 2014).

How the values were obtained:
[1] = growing rats, long-term administration of lower doses
[2] = animal and human studies

CO[C@H]1[C@@H](OC)C[C@@H](O[C@@H]2O[C@H](CO)[C@@H](O)[C@H](O)[C@H]2O)/C(=C\C#N)[C@@H]1O [simmondsin, 2-(cyanomethylene)-3-hydroxy-4,5-dimethoxycyclohexyl beta-D-glucoside]
side effects [1]: without showing any side effects | sustained food intake inhibition [1]: about 20% | other side effects commonly associated with cancer chemotherapy [2]: no other side effects
